Experimental data: paper PMC11697714, “Strigolactones initiate the formation of haustorium-like structures in Castilleja” (iScience, 2024)
Where two headings read alike, the source gives them in different places. Each block holds one molecule with its values, some of them ahead of it.

Key:
[1] = target: T1, KAI2d15 (Castilleja foliolosa, UniProt A0ABD3DF95); assay: differential scanning fluorimetry, SYPRO Orange; assay type: binding; settings: 20 mM Tris-HCl, 30 mM NaCl, 1 mM TCEP, pH 7.7
T1 construct: GST fusion (pGEX-4T-1) in E. coli BL21, GST cut with HRV 3C leaving N-terminal Gly-Pro; synthetic codon-optimised gene; catalytic triad S95, D217, H246; entrance M142, M153, M157; genome GenBank JAVIJP000000000

[2] = target: T2, KAI2d15 (Castilleja foliolosa, UniProt A0ABD3DF95, M143V/M154V/M158V, form not given); assay: differential scanning fluorimetry, SYPRO Orange; assay type: binding; settings: 20 mM Tris-HCl, 30 mM NaCl, 1 mM TCEP, pH 7.7
T2 construct: GST fusion (pGEX-4T-1) in E. coli BL21, GST cut with HRV 3C leaving N-terminal Gly-Pro; synthetic codon-optimised gene; catalytic triad S95, D217, H246; entrance M142, M153, M157; genome GenBank JAVIJP000000000

[3] = target: T1, KAI2d15; assay: fluorescent hydrolysis, Michaelis-Menten; assay type: biochemical
[4] = tested on: T3, KAI2i1; assay: fluorescent hydrolysis, Michaelis-Menten; assay type: biochemical, Castilleja foliolosa
T3 construct: GST fusion (pGEX-4T-1) in E. coli BL21, GST cut with HRV 3C leaving N-terminal Gly-Pro; synthetic codon-optimised gene; genome GenBank JAVIJP000000000
Excerpt: fluorescent hydrolysis, Michaelis-Menten on KAI2i1 | Michaelis-Menten experiments using the large fluorescent strigolactone analog Yoshimulactone Green (YLG)

[5] = tested on: T4, KAI2d14; assay: fluorescent hydrolysis, Michaelis-Menten; assay type: biochemical, Castilleja foliolosa
T4 construct: GST fusion (pGEX-4T-1) in E. coli BL21, GST cut with HRV 3C leaving N-terminal Gly-Pro; synthetic codon-optimised gene; genome GenBank JAVIJP000000000
Excerpt: fluorescent hydrolysis, Michaelis-Menten on KAI2d14 | Michaelis-Menten experiments using the large fluorescent strigolactone analog Yoshimulactone Green (YLG)

[6] = target: T2, KAI2d15; assay: fluorescent hydrolysis, Michaelis-Menten; assay type: biochemical
[7] = target: T5, KAI2d8 (Castilleja foliolosa, UniProt A0ABD3DF32); assay: differential scanning fluorimetry, SYPRO Orange; assay type: binding; settings: 20 mM Tris-HCl, 30 mM NaCl, 1 mM TCEP, pH 7.7
T5 construct: GST fusion (pGEX-4T-1) in E. coli BL21, GST cut with HRV 3C leaving N-terminal Gly-Pro; synthetic codon-optimised gene; genome GenBank JAVIJP000000000
T5 sequence (A0ABD3DF32 1-275): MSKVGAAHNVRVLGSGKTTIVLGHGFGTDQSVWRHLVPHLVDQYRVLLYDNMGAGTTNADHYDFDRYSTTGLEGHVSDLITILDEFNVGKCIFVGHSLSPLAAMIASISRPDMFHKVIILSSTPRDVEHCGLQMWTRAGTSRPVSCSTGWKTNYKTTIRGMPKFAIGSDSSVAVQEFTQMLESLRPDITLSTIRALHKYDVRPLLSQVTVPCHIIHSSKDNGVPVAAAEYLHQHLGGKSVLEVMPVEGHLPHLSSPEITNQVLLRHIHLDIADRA

[8] = substrate: CCOC(=O)c1ccccc1-c1c2ccc(=O)cc-2oc2cc(OC3C=C(C)C(=O)O3)ccc12; assay: fluorescent hydrolysis, Michaelis-Menten; assay type: biochemical, Castilleja foliolosa
Excerpt: fluorescent hydrolysis, Michaelis-Menten on KAI2d9 | Michaelis-Menten experiments using the large fluorescent strigolactone analog Yoshimulactone Green (YLG)

[9] = substrate: CCOC(=O)c1ccccc1-c1c2ccc(=O)cc-2oc2cc(OC3C=C(C)C(=O)O3)ccc12; assay: fluorescent hydrolysis, Michaelis-Menten; assay type: biochemical, Castilleja foliolosa; remark: listed apart in the source
Excerpt: fluorescent hydrolysis, Michaelis-Menten on KAI2d8 | Michaelis-Menten experiments using the large fluorescent strigolactone analog Yoshimulactone Green (YLG)

T1 sequence (A0ABD3DF95 entry or part of it): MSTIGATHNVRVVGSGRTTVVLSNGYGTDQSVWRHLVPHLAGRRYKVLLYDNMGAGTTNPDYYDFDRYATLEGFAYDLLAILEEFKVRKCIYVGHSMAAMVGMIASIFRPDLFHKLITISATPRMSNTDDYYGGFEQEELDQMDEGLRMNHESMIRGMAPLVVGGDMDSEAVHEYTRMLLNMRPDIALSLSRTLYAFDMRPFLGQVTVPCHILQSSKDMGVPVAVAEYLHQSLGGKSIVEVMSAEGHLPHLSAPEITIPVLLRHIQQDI
T2 sequence (A0ABD3DF95 entry or part of it M143V/M154V/M158V, form open): as the sequence (A0ABD3DF95 entry or part of it) above, with M143V, M154V, M158V counted along it

Molecule: CC1=CC(OC=C2C(=O)OC3C4=C(CCCC4(C)C)C(O)C23)OC1=O (stereo not shown) [orobanchol]
differential scanning fluorimetry, SYPRO Orange [1]: wild-type protein destabilized at lower concentrations of strigol or orobanchol | differential scanning fluorimetry, SYPRO Orange [2]: DSF experiments with four different strigolactone molecules, testing both the variant and the wild-type protein

Molecule: CC1=C[C@H](O/C=C2/C(=O)O[C@@H]3C4=C(C[C@H]23)[C@@H](O)CCC4(C)C)OC1=O [strigol]
differential scanning fluorimetry, SYPRO Orange [1]: wild-type protein destabilized at lower concentrations of strigol or orobanchol | differential scanning fluorimetry, SYPRO Orange [2]: DSF experiments with four different strigolactone molecules, testing both the variant and the wild-type protein

Molecule: CC1=C[C@H](O/C=C2/C(=O)O[C@@H]3C4=C(CCCC4(C)C)C[C@H]23)OC1=O [5-deoxystrigol]
differential scanning fluorimetry, SYPRO Orange [1]: DSF experiments with four different strigolactone molecules, testing both the variant and the wild-type protein | differential scanning fluorimetry, SYPRO Orange [2]: mutant protein showed destabilization at lower ligand concentrations when GR24 or 5-deoxystrigol were present

Km [3]: 0.8 µM | Km [4]: 3.1 ± 0.7 µM | Km [5]: 1.1 ± 0.3 µM | Km [6]: 2.4 µM
Molecule: CCOC(=O)c1ccccc1-c1c2ccc(=O)cc-2oc2cc(OC3C=C(C)C(=O)O3)ccc12 (stereo not shown) [Yoshimulactone Green]

Molecule: CC1=C[C@H](O/C=C2/C(=O)O[C@@H]3c4ccccc4C[C@H]23)OC1=O [GR24 5DO]
differential scanning fluorimetry, SYPRO Orange [7]: A weaker but discernible destabilization was noted with KAI2d8 | differential scanning fluorimetry, SYPRO Orange ([2]; printed only as GR24): mutant protein showed destabilization at lower ligand concentrations when GR24 or 5-deoxystrigol were present

B1: KAI2d9 (Castilleja foliolosa) (protein)
chain: MSTVGSAHNVQVIGSGETTVVLGHGYGTDQSVWKNLVPHLVDQYKVLLFDNMGAGTTNPDYFDFERYSTLEGYAYDLIAILEEFNVHKCIYVGHSMSAIAGAIASIFRPDLFHKLIMICASPRLTNTGDYYGGFKQEELEQLSGAMESNFQSMAMGRAPLVIGSDLESEAVQEYCRTLFNMRPDISFSVVRTIFALDMRPFLPQVTVPCHIIQSSKDIYVPLSVGEYLHQNLGGKSIVEVMPTQGHLPHLSAPEVTNPVLLRHIQQDIADA
notes: GST fusion (pGEX-4T-1) in E. coli BL21, GST cut with HRV 3C leaving N-terminal Gly-Pro; synthetic codon-optimised gene; genome GenBank JAVIJP000000000
Km [8]: 0.5 ± 0.1 µM | kcat [8]: 600 ± 49 s⁻¹

B2: KAI2d8 (Castilleja foliolosa) (protein)
chain: T5 sequence (A0ABD3DF32 1-275)
notes: as for B1
Km [9]: 6.6 ± 0.2 µM | kcat [9]: 2780 ± 193 s⁻¹
